Results: ChEMBL document CHEMBL5512598, “Current advances and development strategies of orally bioavailable PROTACs” (Eur J Med Chem, 2023)

Experiments:
[1] = molecular target: Protein cereblon/Tyrosine-protein kinase BTK (Homo sapiens, UniProt Q06187+Q96SW2, C481S); experiment: PROTAC activity at CRBN/BTK C481S mutant in human DLBCL cells assessed as degradation of BTK protein incubated for 4 hrs by HTRF assay; format: cell-based
[2] = Oral availability in ICR mouse at 30 mg/kg by HPLC-MS/MS analysis; format: ADME, organism-based; conditions: in vivo
[3] = AUC (0 to t) in ICR mouse at 30 mg/kg, po measured upto 24 hrs by HPLC-MS/MS analysis; format: ADME, organism-based; conditions: in vivo
[4] = Oral bioavailability in rat at 5 mg/kg by LC-MS/MS analysis; format: ADME, organism-based; conditions: in vivo
[5] = Oral bioavailability in mouse at 5 mg/kg by LC-MS/MS analysis; format: ADME, organism-based; conditions: in vivo
[6] = Oral bioavailability in BALB/c mouse at 30 mg/kg measured for 24 hrs by UPLC-MS/MS analysis; format: ADME, organism-based; conditions: in vivo
[7] = Cmax in BALB/c mouse at 30 mg/kg measured for 24 hrs by UPLC-MS/MS analysis; format: ADME, organism-based; conditions: in vivo
[8] = Tmax in BALB/c mouse at 30 mg/kg measured for 24 hrs by UPLC-MS/MS analysis; format: ADME, organism-based; conditions: in vivo
[9] = AUC (0 to t) in BALB/c mouse at 30 mg/kg measured for 24 hrs by UPLC-MS/MS analysis; format: ADME, organism-based; conditions: in vivo
[10] = Oral bioavailability in mouse; format: ADME, organism-based; conditions: in vivo
[11] = molecular target: von Hippel-Lindau disease tumor suppressor/Bromodomain-containing protein 9 (Homo sapiens, UniProt Q9H8M2+P40337); experiment: PROTAC activity at VHL/BRD9 in human HeLa cells assessed as induction of protein degradation […]; format: cell-based
[12] = molecular target: von Hippel-Lindau disease tumor suppressor/Tyrosine-protein kinase BTK (Homo sapiens, UniProt Q06187+P40337, C481S); experiment: PROTAC activity at VHL/BTK C481S mutant in human TMD8 cells assessed as induction of BTK degradation incubated for 24 hrs by immunoblotting analysis; format: cell-based
Sequence of von Hippel-Lindau disease tumor suppressor/Tyrosine-protein kinase BTK (P40337 whole entry, stated change not applied): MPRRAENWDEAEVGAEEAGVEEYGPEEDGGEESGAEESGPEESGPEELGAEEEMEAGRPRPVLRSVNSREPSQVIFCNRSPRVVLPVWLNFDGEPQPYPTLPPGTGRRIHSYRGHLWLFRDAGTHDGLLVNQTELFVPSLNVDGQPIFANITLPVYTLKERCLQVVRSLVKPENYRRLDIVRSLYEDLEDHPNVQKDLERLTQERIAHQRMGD
Sequence of von Hippel-Lindau disease tumor suppressor/Tyrosine-protein kinase BTK (Q06187 2-659 C481S limits assumed, stated change not applied): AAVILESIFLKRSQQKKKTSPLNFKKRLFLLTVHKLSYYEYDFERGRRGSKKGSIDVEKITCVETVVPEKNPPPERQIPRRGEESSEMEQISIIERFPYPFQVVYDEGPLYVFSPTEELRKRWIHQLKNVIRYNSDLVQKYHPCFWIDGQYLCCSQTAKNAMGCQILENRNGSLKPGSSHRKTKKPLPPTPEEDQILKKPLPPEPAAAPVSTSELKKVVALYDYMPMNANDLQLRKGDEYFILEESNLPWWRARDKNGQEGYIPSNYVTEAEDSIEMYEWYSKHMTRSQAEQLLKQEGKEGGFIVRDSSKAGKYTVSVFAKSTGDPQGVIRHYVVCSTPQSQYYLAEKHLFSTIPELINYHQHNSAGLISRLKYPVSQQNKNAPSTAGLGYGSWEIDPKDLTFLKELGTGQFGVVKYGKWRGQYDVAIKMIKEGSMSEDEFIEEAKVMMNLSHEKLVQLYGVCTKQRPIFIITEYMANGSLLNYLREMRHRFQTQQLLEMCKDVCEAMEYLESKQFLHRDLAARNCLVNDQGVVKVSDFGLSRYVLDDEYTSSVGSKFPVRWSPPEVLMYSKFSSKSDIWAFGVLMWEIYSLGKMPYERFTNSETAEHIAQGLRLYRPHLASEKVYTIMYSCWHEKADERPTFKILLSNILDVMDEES

[13] = system: von Hippel-Lindau disease tumor suppressor/Tyrosine-protein kinase BTK (Homo sapiens), Q06187+P40337 [C481S]; experiment: PROTAC activity at VHL/BTK C481S mutant in human TMD8 cells assessed as maximum degradation of protein relative to control; format: cell-based
[14] = molecular target: von Hippel-Lindau disease tumor suppressor/Histone-lysine N-methyltransferase EZH2 (Homo sapiens, UniProt Q15910+P40337, Y641N); experiment: PROTAC activity against VHL/EZH2 Y641N mutant in human DB cells assessed as degradation of EZH2 protein expression incubated for 24 hrs by Western blot analysis; format: cell-based
[15] = Oral bioavailability in Sprague-Dawley rat at 40 mg/kg measured up to 24 hrs by LC-MS analysis; format: ADME, organism-based; conditions: in vivo
[16] = Cmax in Sprague-Dawley rat at 40 mg/kg, po measured after 24 hrs by LC-MS/MS analysis; format: ADME, organism-based; conditions: in vivo
[17] = Tmax in Sprague-Dawley rat at 40 mg/kg, IG measured up to 24 hrs by LC-MS/MS analysis; format: ADME, organism-based; conditions: in vivo, po
[18] = Half life in Sprague-Dawley rat at 40 mg/kg, po measured after 24 hrs by LC-MS/MS analysis; format: ADME, organism-based; conditions: in vivo
[19] = AUC (0 to t) in Sprague-Dawley rat at 40 mg/kg, IG measured up to 24 hrs by LC-MS/MS analysis; format: ADME, organism-based; conditions: in vivo, po
[20] = molecular target: T1, Protein cereblon/Leucine-rich repeat serine/threonine-protein kinase 2 (Homo sapiens, UniProt Q5S007+Q96SW2); experiment: PROTAC activity at CRBN/LRRK2 in human MOLT-4 cells assessed as induction of LRRK2 degradation at 1 uM by Western blot analysis relative to control; format: cell-based
[21] = molecular target: T1, Protein cereblon/Leucine-rich repeat serine/threonine-protein kinase 2; experiment: PROTAC activity at CRBN/LRRK2 in human MOLT-4 cells assessed as induction of LRRK2 degradation incubated for 48 hrs by Western blot analysis; format: cell-based
Target sequence in this assay (Q5S007 whole entry): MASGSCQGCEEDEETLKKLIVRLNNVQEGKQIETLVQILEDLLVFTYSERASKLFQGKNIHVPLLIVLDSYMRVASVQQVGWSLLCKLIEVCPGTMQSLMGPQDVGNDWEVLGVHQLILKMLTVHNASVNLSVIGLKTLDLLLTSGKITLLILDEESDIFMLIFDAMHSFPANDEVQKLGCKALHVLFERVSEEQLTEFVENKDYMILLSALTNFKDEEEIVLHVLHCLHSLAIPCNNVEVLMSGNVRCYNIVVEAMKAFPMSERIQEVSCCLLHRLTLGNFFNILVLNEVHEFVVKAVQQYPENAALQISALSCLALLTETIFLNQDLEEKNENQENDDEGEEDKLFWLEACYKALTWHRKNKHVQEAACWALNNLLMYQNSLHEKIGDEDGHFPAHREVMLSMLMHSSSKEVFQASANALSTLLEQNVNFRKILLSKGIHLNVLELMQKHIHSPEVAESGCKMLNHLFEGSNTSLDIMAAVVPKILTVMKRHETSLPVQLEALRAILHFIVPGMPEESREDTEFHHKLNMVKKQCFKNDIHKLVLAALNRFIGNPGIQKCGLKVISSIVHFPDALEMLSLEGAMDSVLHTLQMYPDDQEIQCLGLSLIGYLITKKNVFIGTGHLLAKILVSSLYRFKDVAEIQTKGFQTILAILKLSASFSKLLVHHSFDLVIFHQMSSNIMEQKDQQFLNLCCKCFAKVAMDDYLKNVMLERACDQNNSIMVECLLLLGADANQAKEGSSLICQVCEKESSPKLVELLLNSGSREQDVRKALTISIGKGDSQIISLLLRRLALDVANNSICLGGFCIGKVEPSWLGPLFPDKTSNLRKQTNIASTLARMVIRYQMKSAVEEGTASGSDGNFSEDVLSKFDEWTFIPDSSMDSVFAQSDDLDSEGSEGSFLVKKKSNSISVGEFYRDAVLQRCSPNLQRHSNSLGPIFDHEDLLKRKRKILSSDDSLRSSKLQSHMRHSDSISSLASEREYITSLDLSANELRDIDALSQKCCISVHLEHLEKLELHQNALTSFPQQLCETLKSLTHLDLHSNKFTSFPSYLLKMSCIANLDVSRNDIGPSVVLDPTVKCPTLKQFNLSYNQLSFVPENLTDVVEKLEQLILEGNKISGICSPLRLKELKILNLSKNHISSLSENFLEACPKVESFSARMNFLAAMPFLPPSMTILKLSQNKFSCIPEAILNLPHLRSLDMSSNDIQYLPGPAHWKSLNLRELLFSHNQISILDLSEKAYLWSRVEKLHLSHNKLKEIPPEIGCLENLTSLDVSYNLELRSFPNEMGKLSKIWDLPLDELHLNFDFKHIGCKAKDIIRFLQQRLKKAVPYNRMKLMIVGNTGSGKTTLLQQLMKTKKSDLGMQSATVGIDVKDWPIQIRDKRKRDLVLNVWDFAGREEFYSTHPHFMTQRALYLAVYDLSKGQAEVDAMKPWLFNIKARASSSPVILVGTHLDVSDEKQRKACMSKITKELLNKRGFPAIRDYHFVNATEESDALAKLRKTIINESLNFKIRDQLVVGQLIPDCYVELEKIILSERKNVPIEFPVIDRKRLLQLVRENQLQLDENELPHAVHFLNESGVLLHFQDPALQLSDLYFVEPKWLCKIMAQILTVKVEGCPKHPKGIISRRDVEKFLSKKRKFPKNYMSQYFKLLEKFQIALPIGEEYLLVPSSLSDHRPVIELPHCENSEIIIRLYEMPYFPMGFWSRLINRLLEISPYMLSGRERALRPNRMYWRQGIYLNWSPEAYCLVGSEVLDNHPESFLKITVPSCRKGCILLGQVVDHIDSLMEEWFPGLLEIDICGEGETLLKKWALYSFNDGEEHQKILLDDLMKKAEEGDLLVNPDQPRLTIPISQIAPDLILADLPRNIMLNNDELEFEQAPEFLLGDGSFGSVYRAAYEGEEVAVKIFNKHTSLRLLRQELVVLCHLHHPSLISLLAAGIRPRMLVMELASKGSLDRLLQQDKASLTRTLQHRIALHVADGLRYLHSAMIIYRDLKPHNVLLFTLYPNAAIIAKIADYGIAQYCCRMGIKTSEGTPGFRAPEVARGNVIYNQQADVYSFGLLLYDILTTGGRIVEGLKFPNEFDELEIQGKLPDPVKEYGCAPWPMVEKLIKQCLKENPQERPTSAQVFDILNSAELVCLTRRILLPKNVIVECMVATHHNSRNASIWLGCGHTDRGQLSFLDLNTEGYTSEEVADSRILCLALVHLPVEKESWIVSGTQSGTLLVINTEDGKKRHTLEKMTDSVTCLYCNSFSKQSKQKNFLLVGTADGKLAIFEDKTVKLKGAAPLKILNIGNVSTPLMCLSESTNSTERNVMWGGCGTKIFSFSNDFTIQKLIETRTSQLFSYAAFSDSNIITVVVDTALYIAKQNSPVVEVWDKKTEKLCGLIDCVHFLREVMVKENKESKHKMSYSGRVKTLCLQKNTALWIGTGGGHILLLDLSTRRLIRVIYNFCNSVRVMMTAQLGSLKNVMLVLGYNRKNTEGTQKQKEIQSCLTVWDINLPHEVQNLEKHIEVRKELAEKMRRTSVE
Target sequence in this assay (Q96SW2 whole entry): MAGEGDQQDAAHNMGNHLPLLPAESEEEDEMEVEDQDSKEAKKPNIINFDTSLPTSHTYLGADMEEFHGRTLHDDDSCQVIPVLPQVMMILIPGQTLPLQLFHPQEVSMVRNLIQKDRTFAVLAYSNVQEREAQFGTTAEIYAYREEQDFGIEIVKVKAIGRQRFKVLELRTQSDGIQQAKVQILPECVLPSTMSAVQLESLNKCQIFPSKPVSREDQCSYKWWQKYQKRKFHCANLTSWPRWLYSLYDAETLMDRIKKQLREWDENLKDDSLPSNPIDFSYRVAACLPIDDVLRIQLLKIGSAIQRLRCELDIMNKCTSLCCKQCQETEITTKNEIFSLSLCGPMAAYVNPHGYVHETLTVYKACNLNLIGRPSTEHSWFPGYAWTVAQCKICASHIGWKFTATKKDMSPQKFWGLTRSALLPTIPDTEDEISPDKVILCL

Sequence of Protein cereblon/Tyrosine-protein kinase BTK (Q06187 2-659 C481S limits assumed, stated change not applied): as the sequence (Q06187 2-659 C481S limits assumed, stated change not applied) above
Sequence of Protein cereblon/Tyrosine-protein kinase BTK (Q96SW2 whole entry, stated change not applied): as the sequence (Q96SW2 whole entry) above

Compound CN1CCN([C@@H]2CCCN(c3cnc(C(N)=O)c(Nc4ccc(C5CCN(CC6CCN(c7ccc(C(=O)N[C@H]8CCC(=O)NC8=O)nc7)CC6)CC5)cc4)n3)C2)C1=O [NX-5948] has a DC50 [1] of 0.32 nM.
Cc1ncsc1-c1ccc([C@H](CC[C@H](C)CCN2CCC(c3ccc4c(c3)n(C3CCCC3)c3nc(=O)c5c(Br)cccc5n43)CC2)NC(=O)[C@@H]2C[C@@H](O)CN2C(=O)[C@@H](NC(=O)C2(F)CC2)C(C)(C)C)cc1 gave a bioavailability [2] of 22% and an AUC(0-t) at 24 h [3] of 50000 ng·h/mL.
With N#Cc1ccc(O[C@H]2CC[C@H](NC(=O)c3ccc(N4CCC(CN5CCN(c6cc7c(cc6F)C(=O)N(C6CCC(=O)NC6=O)C7=O)CC5)CC4)nn3)CC2)cc1Cl (stereo partly specified) [BAVDEGALUTAMIDE] the bioavailability [4] was 23.8% and the bioavailability [5] was 37.9%.
Compound Cc1ncsc1-c1ccc(CNC(=O)[C@@H]2C[C@@H](O)CN2C(=O)[C@@H](NC(=O)COCCCCOc2ccc(C3CCN(C4=Nn5c(nnc5C(F)(F)F)CC4)CC3)cc2)C(C)(C)C)cc1 has a bioavailability [6] of 23%, a Cmax [7] of 7060 ng/mL and a Tmax [8] of 1.67 h. It also gave an AUC(0-t) at 24 h [9] of 18000 ng·h/mL.
COc1cc(-c2cn(C)c(=O)c3[nH]ncc23)cc(OC)c1CN1CCN(C(=O)CN2CCC(c3ccc(NC4CCC(=O)NC4=O)cc3)CC2)CC1 (stereo unspecified) gave a bioavailability [10] of less than 1% and a DC50 [11] of 5 nM.
In the case of CN1CCN([C@@H]2CCCN(c3cnc(C(N)=O)c(Nc4ccc(C5CCN(C(=O)CCOCCNc6cccc7c6C(=O)N(C6CCC(=O)NC6=O)C7=O)CC5)cc4)n3)C2)C1=O (stereo partly specified), the DC50 [12] was 7 nM and the Emax [13] was 86%.
For Cc1ncsc1-c1ccc(CNC(=O)[C@@H]2C[C@@H](O)CN2C(=O)[C@@H](NC(=O)CCCNC(=O)c2ccc(-c3cnc(NCc4ccco4)n4cnnc34)cc2)C(C)(C)C)cc1, the DC50 [14] was 670 nM.
Compound N#Cc1cccc(-c2ccc(=O)n(Cc3cccc(-c4ncc(OCC5CCN(CC(=O)N6CCN(c7ccc8c(c7)C(=O)N(C7CCC(=O)NC7=O)C8=O)CC6)CC5)cn4)c3)n2)c1 (stereo unspecified) has a bioavailability [15] of 0.7%, a Cmax [16] of 8.47 ng/mL and a Tmax [17] of 1.75 h. It also gave a half-life [18] of 950 min and an AUC(0-t) at 24 h [19] of 74.2 ng·h/mL.
For Cc1ncsc1-c1ccc(CNC(=O)[C@@H]2C[C@@H](O)CN2C(=O)[C@@H](NC(=O)CCCCCCCCCCNC(=O)OC2C[C@@H](C)C=C3C=C[C@H](C)[C@H](CC[C@@H](O)C[C@H](O)CC(=O)O)[C@H]32)C(C)(C)C)cc1 (stereo partly specified), the Emax [20] was 65% and the DC50 [21] was 120 nM.
